Results on 7 compounds are retold here after patent US9801388B2, “Method for a pesticide having an insecticide, acaricide and nematicide action based on isoquinoline alkaloids and flavonoids” (PROMOTORA TECNICA INDUSTRIAL, S.A. DE C.V., priority 2011, dated 2017).

One data set relates to larvae of genus Plutella. Description: Field evaluation of effectiveness against Plutella larvae in Brassica oleracea crop. The data set is classed as in vivo. To be noted: dose 100 mL/Ha, fourth day after application. On the procedure: With the Brassica oleracea crop assessments of the control of larvae of the Plutella genus was performed, the results of this assessment are shown in Table V. The assessment was carried out the fourth day after the application.

Data set [1] relates to nematodes of the genus Meloidogyne. Description: In vitro evaluation of effectiveness against Meloidogyne nematodes. The data set is classed as in vivo. Particulars: dilution 1:200, after 48 hours. The protocol:
The nematicide capacity of formulation 2 was evaluated; a satisfactory percentage after 48 hours was obtained.

Another data set deals with Diaphorina sp adults. Description: Field evaluation of effectiveness against Diaphorina sp adults in Citrus sp. crop. It is filed as in vivo. To be noted: dose 5 mL/L. The protocol: (§1) In accordance with the effectiveness percentages mentioned above, both of the developed products show a significant effectiveness to control insects belonging to the genus Bemisia. The evaluation was carried out four days after the application. The formulations were also applied to observe their effectiveness in the crop of Citrus sp. in controlling two pest species: Diaphorina sp. (adult and nymph) and mites of the genus Polyphagotarsonemus.
(§2) Table III describes the effectiveness of the above mentioned treatments in controlling Diaphorina sp. nymphs.

The test system of another data set is Diaphorina sp nymphs. Description: Field evaluation of effectiveness against Diaphorina sp nymphs in Citrus sp. crop. The data set is classed as in vivo. To be noted: dose 5 mL/L. The protocol:
as §1, §2

The next data set relates to mammals. To be noted: toxic for mammals; cited from earlier work.
The test system of data set [2] is insects of the genus Bemisia. As to the kind of experiment: In vitro (laboratory) evaluation of effectiveness against Bemisia. It is filed as in vivo. To be noted: dose 2 mL/L (recommended by the manufacturer), 24 hours after application. On the procedure: In the laboratory assay both products were diluted to 5 mL of the formulation in 1 L of distilled water, and they were applied against insects of the genus Bemisia. To compare the effectiveness of the formulation distilled water was also applied as an absolute control and bifenthrin ([1a,3a-(Z)]-(±)-(2methyl[1,1′-biphenyl]-3-il)methyl-3-(2-cloro-3,3,3-trifluorine-1-propenyl-2,2-dimethyl cyclopropanecarboxylate) was applied as a commercial control. The application of the formulation was performed in laboratory conditions using devices to keep the specimens under observation. The effectiveness evaluation was carried out 24 hours after the application.
The experimental unit consisted of four devices that were kept at 26 (±2° C.). Three repetitions of each evaluation were performed.
In Table VI, the effectiveness observed in insects of the genus Bemisia after 24 hours of observation with each of the treatments is detailed. The dose of the commercial control (Bifenthrin) was that recommended by the manufacturer.

The next data set relates to humans. To be noted: toxic for humans; cited from earlier work.

On to Spinosad, for which, in the data set on larvae of genus Plutella, the Effectiveness % came out at 52.8%.
Compound `CNC(=O)Oc1cccc2c1OC(C)(C)C2` [Carbofuran] had an Effectiveness % in data set [1] of 100%.
As to `CNC(=O)CSP(=S)(OC)OC` [Dimethoate], the Effectiveness % with Diaphorina sp adults and in the data set with Diaphorina sp nymphs was 100% each time.
Take `C/C=C(/C)C(=O)O[C@H]1CC[C@@]2(C)[C@@H]3CC[C@H]4[C@]5(O)C[C@H](O)[C@@]6(O)[C@@H](CN7C[C@@H](C)CC[C@H]7[C@@]6(C)O)[C@]5(O)C[C@@]42O[C@]13O` [cevadine]: the DL50 in the data set with mammals is listed as 13 mg/kg.
In data set [2], `Cc1c(COC(=O)[C@@H]2[C@H](/C=C(\Cl)C(F)(F)F)C2(C)C)cccc1-c1ccccc1` (racemic) [Bifenthrin, [1a,3a-(Z)]-(±)-(2methyl[1,1′-biphenyl]-3-il)methyl-3-(2-cloro-3,3,3-trifluorine-1-propenyl-2,2-dimethyl cyclopropanecarboxylate] returned an Effectiveness % of 97.18%.
In the case of `C=C(C)[C@H]1Cc2c(ccc3c2O[C@@H]2COc4cc(OC)c(OC)cc4[C@@H]2C3=O)O1` [Rotenone], the DL50 in the data set with humans was 132 mg/kg.
Turning to `COc1ccc(C(=O)O[C@H]2CC[C@@]3(C)[C@@H]4CC[C@H]5[C@]6(O)C[C@H](O)[C@@]7(O)[C@@H](CN8C[C@@H](C)CC[C@H]8[C@@]7(C)O)[C@]6(O)C[C@@]53O[C@]24O)cc1OC` [veratridine], the DL50 in the data set with mammals is reported as 13 mg/kg.
